PubChem BioAssay AID250 (DTP/NCI, 2004)
Where “and” joins values, the source holds several entries; their conditions need not be identical. Identical values can stand only once. Inconclusive results and toxic doses are left out.

Tested on: BDF1 mice, L1210 leukemia sc, survival T/C
Assay: NCI In Vivo Anticancer Drug Screen. Data for tumor model L1210 Leukemia (subcutaneous) in B6D2F1 (BDF1) mice
Conditions: endpoint: median survival time, higher = longer survival
Method in brief: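 Tumors were transplanted into mice, the animals were treated with compound, survival or tumor size was then measured, and treated values were divided by vehicle-control values.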

[1] = dose: 5.0 mg/kg/injection, schedule: Q01DX Z (sc), vehicle: methylcellulose (MC)
[2] = dose: 39.0 mg/kg/injection, schedule: Q01DX Z (sc), vehicle: saline
[3] = dose: 108.0 mg/kg/injection, schedule: Q01DX Z (sc), vehicle: methylcellulose (MC)

Cn1cnc([N+](=O)[O-])c1Sc1nc(N)nc2nc[nH]c12
T/C (dose: 1.3 mg/kg/injection, schedule: Q01DX Z (sc), vehicle: methylcellulose (MC)): 110 % of control | T/C (dose: 2.16 mg/kg/injection, schedule: Q01DX Z (sc), vehicle: methylcellulose (MC)): 90 % of control and 110 % of control | T/C (dose: 3.0 mg/kg/injection, schedule: Q01DX Z (sc), vehicle: methylcellulose (MC)): 109 % of control | T/C (dose: 3.6 mg/kg/injection, schedule: Q01DX Z (oral), vehicle: methylcellulose (MC)): 100 % of control | T/C (dose: 3.6 mg/kg/injection, schedule: Q01DX Z (sc), vehicle: methylcellulose (MC)): 100 % of control | T/C [1]: 118 % of control | T/C (dose: 6.0 mg/kg/injection, schedule: Q01DX Z (oral), vehicle: methylcellulose (MC)): 109 % of control | T/C (dose: 8.4 mg/kg/injection, schedule: Q01DX Z (oral), vehicle: methylcellulose (MC)): 109 % of control | T/C (dose: 10.0 mg/kg/injection, schedule: Q01DX Z (oral), vehicle: methylcellulose (MC)): 100 % of control | T/C (dose: 14.0 mg/kg/injection, schedule: Q01DX Z (oral), vehicle: methylcellulose (MC)): 122 % of control | T/C (dose: 17.0 mg/kg/injection, schedule: Q01DX Z (oral), vehicle: methylcellulose (MC)): 113 % of control | T/C (dose: 28.0 mg/kg/injection, schedule: Q01DX Z (oral), vehicle: methylcellulose (MC)): 113 % of control | T/C (dose: 47.0 mg/kg/injection, schedule: Q01DX Z (oral), vehicle: methylcellulose (MC)): 109 % of control | T/C (dose: 47.0 mg/kg/injection, schedule: Q01DX Z (sc), vehicle: methylcellulose (MC)): 150 % of control | T/C (dose: 65.0 mg/kg/injection, schedule: Q01DX Z (oral), vehicle: methylcellulose (MC)): 154 % of control | T/C (dose: 78.0 mg/kg/injection, schedule: Q01DX Z (oral), vehicle: methylcellulose (MC)): 118 % of control | T/C (dose: 108.0 mg/kg/injection, schedule: Q01DX Z (oral), vehicle: methylcellulose (MC)): 154 % of control | T/C (dose: 130.0 mg/kg/injection, schedule: Q01DX Z (oral), vehicle: methylcellulose (MC)): 113 % of control | T/C (dose: 216.0 mg/kg/injection, schedule: Q01DX Z (oral), vehicle: methylcellulose (MC)): 118 % of control

CC(C)NNC(=O)c1ccncc1
T/C (dose: 200.0 mg/kg/injection, schedule: Q01DX001 (sc), vehicle: saline): 105 % of control and 106 % of control | T/C (dose: 400.0 mg/kg/injection, schedule: Q01DX001 (sc), vehicle: saline): 100 % of control and 103 % of control

O=c1[nH]c(=O)n(C2OC(CO)C(O)C2O)cc1I (centres undefined)
T/C [2]: 100 % of control | T/C (dose: 65.0 mg/kg/injection, schedule: Q01DX Z (sc), vehicle: saline): 100 % of control | T/C (dose: 108.0 mg/kg/injection, schedule: Q01DX Z (sc), vehicle: saline): 100 % of control | T/C (dose: 180.0 mg/kg/injection, schedule: Q01DX Z (sc), vehicle: saline): 94 % of control and 100 % of control | T/C (dose: 300.0 mg/kg/injection, schedule: Q01DX Z (sc), vehicle: saline): 100 % of control | T/C (dose: 500.0 mg/kg/injection, schedule: Q01DX Z (sc), vehicle: saline): 100 % of control and 105 % of control | T/C (dose: 833.0 mg/kg/injection, schedule: Q01DX Z (sc), vehicle: saline): 94 % of control | T/C (dose: 1388.0 mg/kg/injection, schedule: Q01DX Z (sc), vehicle: saline): 94 % of control

O=C(O)CS
T/C (dose: 39.0 mg/kg/injection, schedule: Q01DX Z (sc), vehicle: methylcellulose (MC)): 100 % of control | T/C (dose: 65.0 mg/kg/injection, schedule: Q01DX Z (sc), vehicle: methylcellulose (MC)): 100 % of control | T/C [3]: 100 % of control

CSc1ncnc2c1ncn2C1OC(CO)C(O)C1O (centres undefined)
T/C (dose: 5.0 mg/kg/injection, schedule: Q#A X Z (sc), vehicle: water): 100 % of control | T/C (dose: 8.4 mg/kg/injection, schedule: Q#A X Z (sc), vehicle: water): 100 % of control | T/C (dose: 14.0 mg/kg/injection, schedule: Q01DX Z (sc), vehicle: water): 100 % of control | T/C (dose: 14.0 mg/kg/injection, schedule: Q#A X Z (sc), vehicle: water): 105 % of control | T/C (dose: 23.0 mg/kg/injection, schedule: Q01DX Z (sc), vehicle: water): 100 % of control and 105 % of control | T/C (dose: 23.0 mg/kg/injection, schedule: Q02DX Z (sc), vehicle: water): 100 % of control | T/C (dose: 23.0 mg/kg/injection, schedule: Q#A X Z (sc), vehicle: water): 111 % of control | T/C (dose: 39.0 mg/kg/injection, schedule: Q01DX Z (sc), vehicle: water): 111 % of control | T/C (dose: 39.0 mg/kg/injection, schedule: Q02DX Z (sc), vehicle: water): 105 % of control | T/C (dose: 39.0 mg/kg/injection, schedule: Q## X Z (sc), vehicle: water): 111 % of control | T/C (dose: 39.0 mg/kg/injection, schedule: Q#A X Z (sc), vehicle: water): 111 % of control | T/C (dose: 65.0 mg/kg/injection, schedule: Q01DX001 (sc), vehicle: water): 100 % of control | T/C (dose: 65.0 mg/kg/injection, schedule: Q01DX Z (sc), vehicle: water): 111 % of control | T/C (dose: 65.0 mg/kg/injection, schedule: Q02DX Z (sc), vehicle: water): 100 % of control | T/C (dose: 65.0 mg/kg/injection, schedule: Q## X Z (sc), vehicle: water): 105 % of control | T/C (dose: 108.0 mg/kg/injection, schedule: Q01DX001 (sc), vehicle: water): 111 % of control | T/C (dose: 108.0 mg/kg/injection, schedule: Q01DX Z (sc), vehicle: water): 122 % of control | T/C (dose: 108.0 mg/kg/injection, schedule: Q02DX Z (sc), vehicle: water): 111 % of control | T/C (dose: 108.0 mg/kg/injection, schedule: Q## X Z (sc), vehicle: water): 111 % of control | T/C (dose: 180.0 mg/kg/injection, schedule: Q01DX001 (sc), vehicle: water): 122 % of control | T/C (dose: 180.0 mg/kg/injection, schedule: Q02DX Z (sc), vehicle: water): 105 % of control | T/C (dose: 180.0 mg/kg/injection, schedule: Q## X Z (sc), vehicle: water): 116 % of control | T/C (dose: 300.0 mg/kg/injection, schedule: Q01DX001 (sc), vehicle: water): 122 % of control | T/C (dose: 300.0 mg/kg/injection, schedule: Q## X Z (sc), vehicle: water): 122 % of control

CNNCc1ccc(C(=O)NC(C)C)cc1
T/C (dose: 65.0 mg/kg/injection, schedule: Q01DX009 (sc), vehicle: saline): 116 % of control and 122 % of control | T/C (dose: 65.0 mg/kg/injection, schedule: Q01DX014 (sc), vehicle: saline): 119 % of control and 122 % of control | T/C (dose: 65.0 mg/kg/injection, schedule: Q01DX015 (sc), vehicle: saline): 122 % of control | T/C (dose: 108.0 mg/kg/injection, schedule: Q01DX014 (sc), vehicle: saline): 111 % of control | T/C (dose: 108.0 mg/kg/injection, schedule: Q01DX015 (sc), vehicle: saline): 122 % of control and 123 % of control | T/C (dose: 180.0 mg/kg/injection, schedule: Q01DX015 (sc), vehicle: saline): 150 % of control | T/C (dose: 300.0 mg/kg/injection, schedule: Q01DX015 (sc), vehicle: saline): 163 % of control and 166 % of control | T/C (dose: 500.0 mg/kg/injection, schedule: Q01DX014 (sc), vehicle: saline): 122 % of control | T/C (dose: 500.0 mg/kg/injection, schedule: Q01DX015 (sc), vehicle: saline): 116 % of control and 117 % of control

COC(=O)c1[nH]c(=O)[nH]c(=O)c1F
T/C [1]: 111 % of control | T/C (dose: 10.0 mg/kg/injection, schedule: Q01DX Z (sc), vehicle: methylcellulose (MC)): 158 % of control | T/C (dose: 20.0 mg/kg/injection, schedule: Q01DX Z (sc), vehicle: methylcellulose (MC)): 164 % of control | T/C (dose: 40.0 mg/kg/injection, schedule: Q01DX Z (sc), vehicle: methylcellulose (MC)): 158 % of control | T/C (dose: 80.0 mg/kg/injection, schedule: Q01DX Z (sc), vehicle: methylcellulose (MC)): 152 % of control

O=C(CCN1CC1)OCCOC(=O)CCN1CC1
T/C (dose: 4.7 mg/kg/injection, schedule: Q01DX Z (sc), vehicle: saline): 100 % of control | T/C (dose: 7.8 mg/kg/injection, schedule: Q01DX Z (sc), vehicle: saline): 100 % of control | T/C (dose: 13.0 mg/kg/injection, schedule: Q01DX Z (sc), vehicle: saline): 100 % of control | T/C (dose: 21.0 mg/kg/injection, schedule: Q01DX Z (sc), vehicle: saline): 111 % of control

COCCCN=C(N)c1ccc(NC(=O)c2ccc(C(=O)Nc3ccc(C(N)=NCCCOC)cc3)cc2)cc1
T/C (dose: 8.4 mg/kg/injection, schedule: Q01DX Z (sc), vehicle: saline): 158 % of control | T/C [2]: 100 % of control

S=c1nc[nH]c2c1ncn2C1C=CCCC1 (centres undefined)
T/C (dose: 14.0 mg/kg/injection, schedule: Q01DX Z (sc), vehicle: methylcellulose (MC)): 100 % of control | T/C (dose: 23.4 mg/kg/injection, schedule: Q01DX Z (sc), vehicle: methylcellulose (MC)): 100 % of control | T/C [3]: 100 % of control
